Data taken from ChEMBL document CHEMBL3612024, “Synthesis of five and six-membered heterocycles bearing an arylpiperazinylalkyl side chain as orally active antinociceptive agents” (2015).
Active and inactive are the calls of the source. The calls are words filed in the database; no cut-off is given here.

Legend:
Conditions in all cases: Abdomen
[1] = test system: Mus musculus; test: Antinociceptive activity in Swiss albino mouse assessed as inhibition of acetic acid-induced abdominal constriction at 10 mg/kg, po administered 30 mins prior to testing measured for 10 mins starting 5 mins after acetic acid injection relative to control; type: functional
[2] = test system: Mus musculus; test: Antinociceptive activity in Swiss albino mouse assessed as inhibition of acetic acid-induced abdominal constriction at 20 mg/kg, po administered 30 mins prior to testing measured for 10 mins starting 5 mins after acetic acid injection relative to control; type: functional
[3] = test system: Mus musculus; test: Antinociceptive activity in Swiss albino mouse assessed as inhibition of acetic acid-induced abdominal constriction at 40 mg/kg, po administered 30 mins prior to testing measured for 10 mins starting 5 mins after acetic acid injection relative to control; type: functional
[4] = test system: Mus musculus; test: Antinociceptive activity in Swiss albino mouse assessed as inhibition of acetic acid-induced abdominal constriction at 20 mg/kg, po administered 30 mins prior to testing measured for 10 mins starting 5 mins after acetic acid injection in presence of alpha-2 adrenergic receptor antagonist yohimbine; type: functional, organism-based
[5] = test system: Mus musculus; test: Antinociceptive activity in Swiss albino mouse assessed as inhibition of acetic acid-induced abdominal constriction at 40 mg/kg, po administered 30 mins prior to testing measured for 10 mins starting 5 mins after acetic acid injection in presence of alpha-2 adrenergic receptor antagonist yohimbine; type: functional, organism-based
[6] = test system: Mus musculus; test: Antinociceptive activity in Swiss albino mouse assessed as inhibition of acetic acid-induced abdominal constriction at 30 mg/kg, po administered 30 mins prior to testing measured for 10 mins starting 5 mins after acetic acid injection relative to control; type: functional
[7] = test system: Mus musculus; test: Antinociceptive activity in Swiss albino mouse assessed as inhibition of acetic acid-induced abdominal constriction at 30 mg/kg, po administered 30 mins prior to testing measured for 10 mins starting 5 mins after acetic acid injection in presence of alpha-2 adrenergic receptor antagonist yohimbine; type: functional, organism-based

Compound | inhibition in vivo at 10 mg/kg [1] [%] | inhibition in vivo at 20 mg/kg [2] [%] | inhibition in vivo at 40 mg/kg [3] [%] | inhibition [4] | inhibition [5] | inhibition in vivo at 30 mg/kg [6] [%] | inhibition [1] | inhibition [6] | inhibition [7]
C/C=C/c1c(C)nn(CCCN2CCN(c3ccc(C)cc3)CC2)c(=O)c1N | 0 | 44 | 63 | inactive |  |  |  |  | 
C=Cc1c(CC)nn(CCCN2CCN(c3ccc(C)cc3)CC2)c(=O)c1N | 0 | 0 | 28 |  | inactive |  |  |  | 
C=Cc1c(C)nn(CCCN2CCN(c3ccc(C)cc3)CC2)c(=O)c1N | 33 |  | 65 |  | inactive | 59 |  |  | 
C=Cc1c(C)nn(CCCN2CCN(C(=O)c3ccc(Cl)c(F)c3)CC2)c(=O)c1N |  |  |  |  |  |  | inactive | inactive | 
C=Cc1c(C)nn(CCCN2CCCN(c3ccc(C)cc3)CC2)c(=O)c1N | 0 | 10 | 31 |  | inactive |  |  |  | 
CC(=O)c1cccn1CCCN1CCN(c2cccc(Cl)c2)CC1 | 3 | 41 | 54 | inactive |  |  |  |  | 
CCC(=O)c1c(C)nn(CCCN2CCN(c3ccc(C)cc3)CC2)c(=O)c1N | 9 | 40 | 29 | inactive |  |  |  |  | 
C=Cc1c(CCCC)nn(CCCN2CCN(c3ccc(C)cc3)CC2)c(=O)c1N | 0 | 41 | 48 | inactive |  |  |  |  | 
COc1cccc(N2CCN(CCCn3c(-c4ccccc4)coc3=O)CC2)c1 | 8 | 25 | 39 | inactive |  |  |  |  | 
Cc1c(C#N)c(-c2ccccc2)nn1CCCN1CCN(c2ccc(F)cc2)CC1 | 9 | 28 | 51 |  | inactive |  |  |  | 
CCc1nn(CCCN2CCN(c3ccc(C)cc3)CC2)c(=O)c(N)c1C(C)=O | 10 | 42 | 41 | inactive |  |  |  |  | 
COc1cccc(N2CCN(CCCn3cccc3C(C)=O)CC2)c1 | 0 | 26 | 52 |  | inactive |  |  |  | 
C=Cc1c(CCC)nn(CCCN2CCN(c3ccc(C)cc3)CC2)c(=O)c1N | 3 | 7 | 22 |  | inactive |  |  |  | 
C=Cc1c(C)nn(CC(C)CN2CCN(c3ccc(C)cc3)CC2)c(=O)c1N (stereo not given) | 17 |  |  |  |  | 47 |  |  | inactive
O=c1occ(-c2ccccc2)n1CCCN1CCN(c2ccc(F)cc2)CC1 | 14 | 12 | 34 |  | inactive |  |  |  | 
CC(=O)c1c(C)nn(CCCN2CCN(c3ccc(C)cc3)CC2)c(=O)c1N | 19 |  |  |  |  | 46 |  |  | inactive
